In ChEMBL document CHEMBL1921767, “Facile synthesis of new 4-aza-podophyllotoxin analogs via microwave-assisted multi-component reactions and evaluation of their cytotoxic activity” (Bioorg Med Chem Lett, 2011):
≈ marks a conversion by molar mass, not a printed value.

Columns and labels:
Assay type in all cases: functional, cell-based
M14 = assay: Cytotoxicity against human M14 cells after 24 hrs by MTT assay; settings: M14, 24 h
MCF7 = assay: Cytotoxicity against human MCF7 cells after 24 hrs by MTT assay; settings: MCF7, 24 h
[1] = Cytotoxicity against human SW1116 cells after 24 hrs by MTT assay; settings: SW 1116, 24 h

| Compound | IC50 (M14) [µg/mL] | IC50 (MCF7) [µg/mL] | IC50 [1] [µg/mL] |
| --- | --- | --- | --- |
| Cc1nc2c3c(ccc2s1)NC1=C(C(=O)OC1)C3c1ccc(Br)cc1 (racemic) | 167 (≈ 405 µM) | 748 (≈ 1810 µM) | 257 (≈ 623 µM) |
| Cc1nc2c3c(ccc2s1)NC1=C(C(=O)OC1)C3c1cccc([N+](=O)[O-])c1 (racemic) | 77.9 (≈ 205 µM) | 151 (≈ 399 µM) | 26 (≈ 68.5 µM) |
| Cc1nc2c3c(ccc2s1)NC1=C(C(=O)OC1)C3c1ccc([N+](=O)[O-])cc1 (racemic) | > 1000 | > 1000 | > 1000 |
| Cc1nc2c3c(ccc2s1)NC1=C(C(=O)OC1)C3c1ccccc1 (racemic) | > 1000 | > 1000 | 156 (≈ 466 µM) |
| Cc1ccc(C2C3=C(COC3=O)Nc3ccc4sc(C)nc4c32)cc1 (racemic) | 225 (≈ 645 µM) | 25.7 (≈ 73.7 µM) | 122 (≈ 350 µM) |
| COc1ccc(C2C3=C(COC3=O)Nc3ccc4sc(C)nc4c32)cc1 (racemic) | 508 (≈ 1390 µM) | – | > 1000 |
| Cc1nc2c3c(ccc2s1)NC1=C(C(=O)OC1)C3c1ccc(Cl)cc1Cl (racemic) | > 1000 | 539 (≈ 1340 µM) | – |
| Cc1nc2c3c(ccc2s1)NC1=C(C(=O)OC1)C3c1ccc(O)c([N+](=O)[O-])c1 (racemic) | 33.9 (≈ 85.7 µM) | 56 (≈ 142 µM) | 69.4 (≈ 176 µM) |
| COc1cc(C2C3=C(COC3=O)Nc3ccc4sc(C)nc4c32)cc(OC)c1OC (racemic) | > 1000 | 686 (≈ 1620 µM) | 383 (≈ 903 µM) |
